Key:
Details in all cases: 72 h
Caco-2 [1] = experiment: cell viability relative to DMSO; higher = less toxic
Calu-3 [2] = experiment: as above
U2OS [3] = experiment: as above
Vero E6 [4] = experiment: as above
HepG2 [5] = experiment: as above
Calu-3 [6] = experiment: relative viability EC50 (midpoint between 100% and the lowest measured viability); higher = less toxic
U2OS [7] = experiment: as above
Vero E6 [8] = experiment: as above
HepG2 [9] = experiment: as above
Caco-2 [10] = experiment: drug sensitivity score (DSS) for viability; higher = more toxic; extreme values may be limits of the assay
Calu-3 [11] = experiment: as above
U2OS [12] = experiment: as above
Vero E6 [13] = experiment: as above
HepG2 [14] = experiment: as above
Caco-2 [15] = experiment: relative viability EC50 (midpoint between 100% and the lowest measured viability); higher = less toxic

Row | SMILES | cell viability (Caco-2 [1]; 1 nM) [%] | cell viability (Caco-2 [1]; 10 nM) [%] | cell viability (Caco-2 [1]; 100 nM) [%] | cell viability (Caco-2 [1]; 1000 nM) [%] | cell viability (Caco-2 [1]; 10000 nM) [%] | cell viability (Calu-3 [2]; 1 nM) [%] | cell viability (Calu-3 [2]; 10 nM) [%] | cell viability (Calu-3 [2]; 100 nM) [%] | cell viability (Calu-3 [2]; 1000 nM) [%] | cell viability (Calu-3 [2]; 10000 nM) [%] | cell viability (U2OS [3]; 1 nM) [%] | cell viability (U2OS [3]; 10 nM) [%] | cell viability (U2OS [3]; 100 nM) [%] | cell viability (U2OS [3]; 1000 nM) [%] | cell viability (U2OS [3]; 10000 nM) [%] | cell viability (Vero E6 [4]; 1 nM) [%] | cell viability (Vero E6 [4]; 10 nM) [%] | cell viability (Vero E6 [4]; 100 nM) [%] | cell viability (Vero E6 [4]; 1000 nM) [%] | cell viability (Vero E6 [4]; 10000 nM) [%] | cell viability (HepG2 [5]; 1 nM) [%] | cell viability (HepG2 [5]; 10 nM) [%] | cell viability (HepG2 [5]; 100 nM) [%] | cell viability (HepG2 [5]; 1000 nM) [%] | cell viability (HepG2 [5]; 10000 nM) [%] | relative viability EC50 (Calu-3 [6]) [µM] | relative viability EC50 (U2OS [7]) [µM] | relative viability EC50 (Vero E6 [8]) [µM] | relative viability EC50 (HepG2 [9]) [µM] | drug sensitivity score (Caco-2 [10]) | drug sensitivity score (Calu-3 [11]) | drug sensitivity score (U2OS [12]) | drug sensitivity score (Vero E6 [13]) | drug sensitivity score (HepG2 [14]) | relative viability EC50 (Caco-2 [15]) [µM]
1 | O=c1[nH]c(CCl)nc2sc3c(c12)CCCC3 | 96.8 | 99.1 | 98.3 | 98.8 | 71 | 116 | 98.1 | 97.9 | 92 | 109 | 103 | 94.5 | 98.8 | 100 | 80.6 | 99.4 | 101 | 95.8 | 96.4 | 92.9 | 92.7 | 94.5 | 96.2 | 107 | 81.8 | > 10 | > 10 | > 10 | > 10 | 1.4 | 0 | 0.5 | 0 | 0.2 | 
2 | OCCC#Cc1nc(-c2ccc(F)cc2)c(-c2ccncc2)n1CCCc1ccccc1 | 98.4 | 106 | 91.6 | 91.6 | 78.6 | 101 | 100 | 83.6 | 90.2 | 79.7 | 95.9 | 92 | 94.7 | 90.1 | 79.7 | 92.5 | 99.7 | 87 | 85 | 100 | 90.4 | 99.5 | 105 | 99.6 | 93.9 | > 10 | > 10 | > 10 | > 10 | 1.2 | 2.2 | 1.1 | 0 | 0 | > 10
3 | c1ccc(-c2n[nH]cc2-c2ccnc3ccccc23)nc1 | 96.4 | 93.1 | 92.7 | 103 | 97.3 | 95.5 | 105 | 110 | 105 | 105 | 94.1 | 97.9 | 95.9 | 98.9 | 91.4 | 94.1 | 99.4 | 99.4 | 89.3 | 104 | 110 | 96.4 | 107 | 102 | 116 | > 10 | > 10 | > 10 | > 10 | 0 | 0 | 0 | 0 | 0 | > 10
4 | c1ccc2c(-c3cnn4cc(-c5ccc(N6CCNCC6)cc5)cnc34)ccnc2c1 | 107 | 87.7 | 120 | 85.9 | 11.4 | 95.8 | 98.6 | 112 | 93.9 | 0.4 | 95.1 | 94.2 | 92.1 | 80.4 | -0.1 | 90 | 102 | 98.1 | 71.5 | -0.1 | 99.3 | 111 | 94.5 | 75.7 | -0.1 | 2.69 | 1.75 | 1.44 | 1.57 | 7.2 | 6.4 | 8.7 | 9.7 | 9.3 | 1.94
5 | CC(C)[C@@H](CS(=O)(=O)C(C)C)N1C(=O)[C@@](C)(CC(=O)O)C[C@H](c2cccc(Cl)c2)[C@H]1c1ccc(Cl)cc1 [AMG-232] | 99.6 | 97.7 | 94.2 | 91.3 | 82.9 | 99.9 | 92.4 | 93.1 | 96.7 | 93.8 | 98.5 | 95.5 | 97.4 | 71.2 | 65.8 | 96.8 | 99.1 | 98.4 | 58.1 | 44.6 | 102 | 96 | 85.9 | 33.5 | 24.4 | > 10 |  | 0.568 | 0.266 | 0.7 | 0 | 5.2 | 8.1 | 14 | > 10
6 | O=C(O)CCCCC(CCSCc1ccccc1)SCc1ccccc1 (stereo unspecified) [CPI-613] |  |  |  |  |  | 103 | 104 | 97.6 | 106 | 101 | 100 | 96.7 | 95.5 | 96.4 | 112 | 98.7 | 94.8 | 97.8 | 95.7 | 100 | 97.5 | 102 | 97.2 | 100 | 104 | > 10 | > 10 | > 10 | > 10 |  | 0 | 0 | 0 | 0 | 
7 | CCC[C@@H](NC(=O)N1C(=O)C(CC)(CC)[C@@H]1Oc1ccc(C(=O)N2CCN(C)CC2)cc1)c1ccc2c(c1)OCO2 [DMP-777] | 103 | 95 | 99.6 | 105 | 63.3 | 105 | 110 | 105 | 95.4 | 94.1 | 93.7 | 103 | 98.5 | 96.7 | 88 | 94.8 | 95.5 | 93.4 | 93.7 | 96.8 | 95.3 | 97.1 | 102 | 90.8 | 93 | > 10 | > 10 | > 10 | > 10 | 1.4 | 0 | 0.1 | 0 | 0 | 
8 | CN(Cc1ccccc1)C(=O)[C@H](Cc1ccc2ccccc2c1)NC(=O)[C@@H]1C[C@@H](O)CN1C(=O)c1cn(C)c2ccccc12 [FK-888] | 99.7 | 105 | 99.2 | 94.7 | 69.3 | 99.3 | 94 | 90.6 | 90.5 | 86.7 | 103 | 98.7 | 98.5 | 103 | 87.2 | 105 | 103 | 101 | 95.2 | 99 | 106 | 111 | 106 | 93 | 82.3 | > 10 | > 10 | > 10 | > 10 | 2.2 | 0.6 | 0 | 0 | 1.1 | 
9 | COC[C@@H](NC(C)=O)C(=O)NCc1ccccc1 [Lacosamide] | 92.8 | 90.5 | 81.7 | 98.8 | 106 | 99.1 | 99.5 | 90.6 | 114 | 110 |  |  |  |  |  | 98.5 | 97.4 | 86 | 90.6 | 104 | 98.3 | 97.5 | 98.3 | 98 | 96.1 | > 10 | > 10 | > 10 | > 10 | 0 | 0 | 0 | 0 | 0 | > 10
10 | CCCc1c(-c2ccc(O)cc2)nn(-c2ccc(O)cc2)c1-c1ccc(O)cc1 [PPT] | 102 | 100 | 104 | 91 | 75 | 94.8 | 104 | 97.4 | 106 | 116 | 104 | 102 | 101 | 98.9 | 98.9 | 99.2 | 98.9 | 98.7 | 99.6 | 96 | 100 | 99.2 | 96 | 97 | 99.8 | > 10 | > 10 | > 10 | > 10 | 2.1 | 0 | 0 | 0 | 0 | 
11 | O=C(Nc1ccc(C(O)(C(F)(F)F)C(F)(F)F)cc1)c1ccc(C(F)(F)F)cc1 [SR-1078] | 104 | 99.6 | 95.4 | 99.7 | 56.4 | 109 | 105 | 118 | 91.7 | 48.6 | 105 | 107 | 102 | 102 | 93.2 | 100 | 100 | 99.6 | 97.6 | 95.6 | 114 | 99.9 | 101 | 99 | 112 | 1.93 | > 10 | > 10 | > 10 | 2.3 | 4.1 | 0 | 0 | 0 | 
12 | COc1ccc(C(=O)Nc2sc3c(c2C(N)=O)CCCC3)cc1OC [TCS-359] |  |  |  |  |  | 100 | 93.4 | 101 | 91.1 | 105 | 96.8 | 99 | 102 | 98.4 | 105 | 108 | 105 | 96 | 98.3 | 98.3 | 94.4 | 102 | 89.6 | 97.6 | 94.5 | > 10 | > 10 | > 10 | > 10 |  | 0 | 0 | 0 | 0 | 
13 | CC(C)(C)NC(=O)N[C@H](C(=O)N1C[C@H]2[C@@H]([C@H]1C(=O)NC(CC1CCC1)C(=O)C(N)=O)C2(C)C)C(C)(C)C (stereo partly specified) [boceprevir] |  |  |  |  |  | 93.7 | 101 | 101 | 95.2 | 105 | 102 | 98.6 | 99.6 | 96.4 | 97.5 | 100 | 102 | 93.9 | 96.1 | 93.9 | 98.2 | 96.9 | 109 | 93.7 | 95.7 | > 10 | > 10 | > 10 | > 10 |  | 0 | 0 | 0 | 0 | 
14 | CCCC(=O)O[C@]1(C(=O)CCl)[C@@H](C)C[C@H]2[C@@H]3CCC4=CC(=O)C=C[C@]4(C)[C@@]3(F)C(=O)C[C@@]21C [clobetasone-butyrate] | 94.7 | 103 | 94.1 | 94.3 | 74.6 | 96.1 | 112 | 97.3 | 100 | 89 | 93.1 | 96.1 | 91.8 | 95 | 87.9 | 108 | 102 | 109 | 98.5 | 93 | 96.2 | 104 | 97.9 | 90.3 | 88.5 | > 10 | > 10 | > 10 | > 10 | 1.7 | 0 | 0 | 0 | 0.3 | 
15 | COc1cc2c(cc1Cc1cccc(Cl)c1F)c(=O)c(C(=O)O)cn2[C@H](CO)C(C)C [elvitegravir] | 95.3 | 91.8 | 87.6 | 99.8 | 69.3 | 99.2 | 97.4 | 102 | 96.7 | 88.1 | 93.6 | 95.7 | 92.8 | 96.3 | 80.3 | 101 | 97.9 | 98 | 93.6 | 99.5 | 117 | 106 | 109 | 104 | 91 | > 10 | > 10 | > 10 | > 10 | 1.4 | 0.2 | 0.5 | 0 | 0 | 

— the supplement of paper PMC13380429
